# Reference: patent publication US8192962B2, “Processes for detecting toxic substances” (Daikin Industries, Ltd., priority 2001, dated 2012)
# Test system: Genes belonging to other category
# Assay: DNA chip mRNA expression in yeast, genes belonging to other category (Table 9)
# Assay type: cell-based, Saccharomyces cerevisiae S288C
# Summary of the method: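 Measured as treated-to-untreated fluorescence ratio on a full-genome yeast DNA chip. Cells (S288C, YPD, 25° C.) were exposed in log phase for two hours to one chemical, dosed to curb growth without killing.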
smiles,measurement,setting,value
"C=CC=O [(14), acrolein]",The level of expressed mRNA in the presence of chemical substance/The level of expressed mRNA in the absence of chemical substance,yeast gene YDR432W,0.5
same,The level of expressed mRNA in the presence of chemical substance/The level of expressed mRNA in the absence of chemical substance,yeast gene YDR481C,0.9
same,The level of expressed mRNA in the presence of chemical substance/The level of expressed mRNA in the absence of chemical substance,yeast gene YDR510W,1.9
same,The level of expressed mRNA in the presence of chemical substance/The level of expressed mRNA in the absence of chemical substance,yeast gene YEL042W,0.6
same,The level of expressed mRNA in the presence of chemical substance/The level of expressed mRNA in the absence of chemical substance,yeast gene YEL066W,1.9
same,The level of expressed mRNA in the presence of chemical substance/The level of expressed mRNA in the absence of chemical substance,yeast gene YER009W,1.6
same,The level of expressed mRNA in the presence of chemical substance/The level of expressed mRNA in the absence of chemical substance,yeast gene YER021W,1.3
same,The level of expressed mRNA in the presence of chemical substance/The level of expressed mRNA in the absence of chemical substance,yeast gene YER025W,2.1
same,The level of expressed mRNA in the presence of chemical substance/The level of expressed mRNA in the absence of chemical substance,yeast gene YER039C,1.2
same,The level of expressed mRNA in the presence of chemical substance/The level of expressed mRNA in the absence of chemical substance,yeast gene YER072W,1.5
same,The level of expressed mRNA in the presence of chemical substance/The level of expressed mRNA in the absence of chemical substance,yeast gene YER107C,1.1
same,The level of expressed mRNA in the presence of chemical substance/The level of expressed mRNA in the absence of chemical substance,yeast gene YER130C,0.8
same,The level of expressed mRNA in the presence of chemical substance/The level of expressed mRNA in the absence of chemical substance,yeast gene YER177W,0.9
same,The level of expressed mRNA in the presence of chemical substance/The level of expressed mRNA in the absence of chemical substance,yeast gene YFL022C,3.1
same,The level of expressed mRNA in the presence of chemical substance/The level of expressed mRNA in the absence of chemical substance,yeast gene YFL028C,1.6
same,The level of expressed mRNA in the presence of chemical substance/The level of expressed mRNA in the absence of chemical substance,yeast gene YFL043C,1.5
same,The level of expressed mRNA in the presence of chemical substance/The level of expressed mRNA in the absence of chemical substance,yeast gene YFR014C,1.0
same,The level of expressed mRNA in the presence of chemical substance/The level of expressed mRNA in the absence of chemical substance,yeast gene YFR050C,1.6
same,The level of expressed mRNA in the presence of chemical substance/The level of expressed mRNA in the absence of chemical substance,yeast gene YGL094C,0.9
same,The level of expressed mRNA in the presence of chemical substance/The level of expressed mRNA in the absence of chemical substance,yeast gene YGL150C,1.0
same,The level of expressed mRNA in the presence of chemical substance/The level of expressed mRNA in the absence of chemical substance,yeast gene YGL158W,2.3
same,The level of expressed mRNA in the presence of chemical substance/The level of expressed mRNA in the absence of chemical substance,yeast gene YGL185C,1.5
same,The level of expressed mRNA in the presence of chemical substance/The level of expressed mRNA in the absence of chemical substance,yeast gene YGL229C,1.0
same,The level of expressed mRNA in the presence of chemical substance/The level of expressed mRNA in the absence of chemical substance,yeast gene YGR036C,1.0
same,The level of expressed mRNA in the presence of chemical substance/The level of expressed mRNA in the absence of chemical substance,yeast gene YGR120C,1.0
same,The level of expressed mRNA in the presence of chemical substance/The level of expressed mRNA in the absence of chemical substance,yeast gene YGR131W,2.0
same,The level of expressed mRNA in the presence of chemical substance/The level of expressed mRNA in the absence of chemical substance,yeast gene YGR136W,1.1
same,The level of expressed mRNA in the presence of chemical substance/The level of expressed mRNA in the absence of chemical substance,yeast gene YGR189C,0.9
same,The level of expressed mRNA in the presence of chemical substance/The level of expressed mRNA in the absence of chemical substance,yeast gene YGR213C,1.0
same,The level of expressed mRNA in the presence of chemical substance/The level of expressed mRNA in the absence of chemical substance,yeast gene YGR232W,2.1
same,The level of expressed mRNA in the presence of chemical substance/The level of expressed mRNA in the absence of chemical substance,yeast gene YGR239C,1.4
same,The level of expressed mRNA in the presence of chemical substance/The level of expressed mRNA in the absence of chemical substance,yeast gene YGR257C,0.9
same,The level of expressed mRNA in the presence of chemical substance/The level of expressed mRNA in the absence of chemical substance,yeast gene YHR004C,0.8
same,The level of expressed mRNA in the presence of chemical substance/The level of expressed mRNA in the absence of chemical substance,yeast gene YHR071W,1.6
same,The level of expressed mRNA in the presence of chemical substance/The level of expressed mRNA in the absence of chemical substance,yeast gene YHR109W,1.5
same,The level of expressed mRNA in the presence of chemical substance/The level of expressed mRNA in the absence of chemical substance,yeast gene YHR139C,2.5
same,The level of expressed mRNA in the presence of chemical substance/The level of expressed mRNA in the absence of chemical substance,yeast gene YHR142W,1.2
same,The level of expressed mRNA in the presence of chemical substance/The level of expressed mRNA in the absence of chemical substance,yeast gene YHR161C,1.0
same,The level of expressed mRNA in the presence of chemical substance/The level of expressed mRNA in the absence of chemical substance,yeast gene YHR163W,1.5
same,The level of expressed mRNA in the presence of chemical substance/The level of expressed mRNA in the absence of chemical substance,yeast gene YHR169W,1.1
same,The level of expressed mRNA in the presence of chemical substance/The level of expressed mRNA in the absence of chemical substance,yeast gene YHR171W,1.0
same,The level of expressed mRNA in the presence of chemical substance/The level of expressed mRNA in the absence of chemical substance,yeast gene YIL010W,1.7
same,The level of expressed mRNA in the presence of chemical substance/The level of expressed mRNA in the absence of chemical substance,yeast gene YIL034C,1.1
same,The level of expressed mRNA in the presence of chemical substance/The level of expressed mRNA in the absence of chemical substance,yeast gene YIL076W,1.4
same,The level of expressed mRNA in the presence of chemical substance/The level of expressed mRNA in the absence of chemical substance,yeast gene YIL123W,0.3
same,The level of expressed mRNA in the presence of chemical substance/The level of expressed mRNA in the absence of chemical substance,yeast gene YIL140W,0.9
same,The level of expressed mRNA in the presence of chemical substance/The level of expressed mRNA in the absence of chemical substance,yeast gene YIL142W,1.0
